Reference: the supplement of paper PMC10307832

Key:
Assay in all cases: relative viability (nuclei count vs DMSO), 5 days (fraction); higher = more cells survive
Neratinib + Alpelisib = compound: CCOc1cc2ncc(C#N)c(Nc3ccc(OCc4ccccn4)c(Cl)c3)c2cc1NC(=O)/C=C/CN(C)C [Neratinib] + Cc1nc(NC(=O)N2CCC[C@H]2C(N)=O)sc1-c1ccnc(C(C)(C)C(F)(F)F)c1 [Alpelisib] (partner 2 µM)
Summary of the method: (§1)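 Five library-drug doses in √10 steps were combined with a fixed anchor-drug dose, or a single drug was given alone, by pin tool to lung cancer cell lines in 1536-well plates the day after seeding. Nuclei were stained and counted after 5 days. Relative viability is the nuclei count in treated wells over that in vehicle wells, taken as the median of duplicate plates.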

Neratinib + Olaparib = compound: CCOc1cc2ncc(C#N)c(Nc3ccc(OCc4ccccn4)c(Cl)c3)c2cc1NC(=O)/C=C/CN(C)C [Neratinib] + O=C(c1cc(Cc2n[nH]c(=O)c3ccccc23)ccc1F)N1CCN(C(=O)C2CC2)CC1 [Olaparib] (partner 8 µM)
Summary of the method: as §1

Neratinib + Palbociclib = compound: CCOc1cc2ncc(C#N)c(Nc3ccc(OCc4ccccn4)c(Cl)c3)c2cc1NC(=O)/C=C/CN(C)C [Neratinib] + CC(=O)c1c(C)c2cnc(Nc3ccc(N4CCNCC4)cn3)nc2n(C2CCCC2)c1=O [Palbociclib] (partner 0.5 µM)
Summary of the method: as §1

Neratinib + Pemetrexed = compound: CCOc1cc2ncc(C#N)c(Nc3ccc(OCc4ccccn4)c(Cl)c3)c2cc1NC(=O)/C=C/CN(C)C [Neratinib] + Nc1nc2[nH]cc(CCc3ccc(C(=O)N[C@@H](CCC(=O)O)C(=O)O)cc3)c2c(=O)[nH]1 [Pemetrexed] (partner 0.2 µM)
Summary of the method: as §1

Cell Line	relative viability (Neratinib + Alpelisib; first compound 0.01 µM)	relative viability (Neratinib + Alpelisib; first compound 0.03162 µM)	relative viability (Neratinib + Alpelisib; first compound 0.1 µM)	relative viability (Neratinib + Alpelisib; first compound 0.3162 µM)	relative viability (Neratinib + Alpelisib; first compound 1 µM)	relative viability (Neratinib + Olaparib; first compound 0.01 µM)	relative viability (Neratinib + Olaparib; first compound 0.03162 µM)	relative viability (Neratinib + Olaparib; first compound 0.1 µM)	relative viability (Neratinib + Olaparib; first compound 0.3162 µM)	relative viability (Neratinib + Olaparib; first compound 1 µM)	relative viability (Neratinib + Palbociclib; first compound 0.01 µM)	relative viability (Neratinib + Palbociclib; first compound 0.03162 µM)	relative viability (Neratinib + Palbociclib; first compound 0.1 µM)	relative viability (Neratinib + Palbociclib; first compound 0.3162 µM)	relative viability (Neratinib + Palbociclib; first compound 1 µM)	relative viability (Neratinib + Pemetrexed; first compound 0.01 µM)	relative viability (Neratinib + Pemetrexed; first compound 0.03162 µM)	relative viability (Neratinib + Pemetrexed; first compound 0.1 µM)	relative viability (Neratinib + Pemetrexed; first compound 0.3162 µM)	relative viability (Neratinib + Pemetrexed; first compound 1 µM)
NCI-H1437	1.11	1.07	0.714	0.912	0.617	0.673	0.614	0.612	0.603	0.663	0.322	0.329	0.293	0.268	0.341	0.329	0.344	0.269	0.275	0.312
NCI-H1651	1.03	1	0.823	0.783	0.616	0.183	0.191	0.185	0.19	0.193	0.542	0.558	0.499	0.45	0.467	0.619	0.629	0.565	0.57	0.516
NCI-H1666	0.919	0.772	0.57	0.433	0.369	0.751	0.806	0.675	0.666	0.806	0.597	0.711	0.579	0.625	0.774	0.856	0.867	0.746	0.652	0.725
NCI-H1734	0.744	–	0.588	0.533	0.479	0.76	0.694	0.545	0.525	0.457	0.409	0.395	0.241	0.328	0.28	0.421	0.467	0.354	0.432	0.492
NCI-H1755	0.947	1.04	0.899	0.946	0.409	0.925	0.922	0.807	0.918	0.824	0.457	0.463	0.33	0.456	0.432	0.496	0.496	0.379	0.563	0.417
NCI-H1792	–	0.803	0.639	0.599	0.484	0.0369	0.65	0.376	0.257	0.174	0.813	0.71	0.414	0.616	0.445	0.826	1.16	0.716	0.812	0.538
NCI-H1793	0.708	0.664	0.472	0.519	0.296	1	0.855	0.551	0.345	0.217	0.257	0.276	0.239	0.241	0.23	0.92	0.778	0.637	0.666	0.414
NCI-H1915	1.12	1.13	1.04	0.99	0.829	0.232	–	0.221	0.245	0.252	0.538	0.537	0.504	0.528	0.414	0.495	0.495	0.44	0.412	0.516
NCI-H1944	0.948	0.782	0.615	0.561	0.393	0.45	0.406	0.229	0.352	0.319	0.365	0.32	0.264	0.241	0.247	0.642	0.563	–	0.555	0.439
NCI-H1975	0.85	0.738	0.546	0.153	0.192	0.917	0.96	0.644	0.43	0.18	0.658	0.739	0.522	0.337	0.176	0.295	0.336	0.284	0.25	0.178
NCI-H1993	0.624	0.666	0.717	0.687	0.664	1.33	1.06	0.996	0.704	–	0.768	0.578	0.522	0.466	0.568	0.398	0.543	0.533	0.564	0.486
NCI-H2009	1.14	1.16	1.11	1.17	0.955	0.691	0.752	0.65	0.689	0.732	0.176	0.266	0.21	0.243	0.208	1.09	–	1.06	1.06	1.01
NCI-H2023	0.62	0.611	0.511	0.445	0.298	0.448	0.415	0.365	0.42	0.386	0.395	0.363	0.308	0.322	0.348	0.251	0.221	0.21	0.221	0.212
NCI-H2085	1.02	–	0.778	0.7	0.549	0.755	0.8	0.729	0.644	0.639	0.468	0.456	0.467	0.419	0.382	0.962	0.987	0.754	0.655	0.71
NCI-H2087	1.15	1.11	–	1.05	–	0.622	0.496	0.643	0.424	0.255	0.212	0.271	0.217	0.182	0.14	0.634	0.74	0.655	0.694	0.548
NCI-H2126	0.829	0.723	0.724	0.679	0.382	0.958	0.891	0.815	0.871	0.492	0.33	0.347	–	0.344	0.309	0.659	0.638	0.623	0.616	0.404
